These results are taken from US8367737B2, “Method of using biothionol and biothionol-like compounds as anti-angiogenic agents” (Southern Research Institute, priority 2007, dated 2013).

Usually IC50 stands for the point on the concentration scale where inhibition reaches its midpoint. A low value points to greater potency.

Where a name gives a salt, the structure may show the parent alone.

The test system of assay [1] is Endothelial cells (HUVEC). Description: Endothelial tube formation assay. The assay is classed as cell-based. To be noted: Homo sapiens, read-out: Inhibition in Endothlia Tube-Formation. The procedure:
Human endothelial cells are cultured in vitro on extracellular matrix, which stimulates the attachment and differentiation of endothelial cells into tubules. The endothelial tube formation assay is based on this phenomenon. Endothelial cells (HUVEC) are seeded (1.5×10^4 per well) in a 96-well plates coated with extracellular matrix and treated with the target compounds at different concentrations with the full growth medium in triplicate. The cells are allowed to form endothelial tubes at 37° C. for about 18 hours and photographed under an inverted light microscope. The tubule lengths are quantified using image analysis software, Image-Pro Plus (Media Cybernetics, Inc., Silver Spring, Md.). Data are expressed as average tube lengths of three view fields for each well and triplicate wells for each treatment condition. IC50 values are calculated based on the dose curve.

The test system of a further assay is lung fibroblasts LL47. As to the kind of experiment: Cell proliferation assay (CellTiter-Glo), fibroblasts. Particulars: Homo sapiens, Fibroblast; 72 hours of treatment, growth medium. The assay is classed as cell-based. On the procedure: (§1) Human primary cell lines, arterial endothelia, such as HAEC and HPAEC, venous endothelia HUVEC (from Cambrex BioScience Rockland Inc.), and lung fibroblasts LL47 (from the American Type Culture Collection) are cultured by following the instruction and used to evaluate the target compounds for their differential activity against human endothelia verses fibroblasts by CellTiter-Glo Luminescent Cell viability Assay. This assay, generating luminescent signals, is based on quantification of ATP levels in cell cultures. Amount of ATP produced in cell culture reflects the number of viable cells. […] Cells are seeded in 96-well plates with their growth medium, about 5×10^3 cell per well. After 24 hours, various doses of the target compounds are added to the cultures, having four replicates for each dose. After 72 hours of treatment, CellTiter-Glo reagent is added to the cultures following the manufacturer's instruction and luminescence is measured. The control groups are given DMSO vehicle only. IC50s of target compounds for endothelia and fibroblasts proliferation in their growth medium are determined based on the dose response curve and plotted against the range of concentrations.
(In general: ATP-based viability assays read luminescence as a measure of living cells.)

The subject of a further assay is venous endothelia HUVEC. As to the kind of experiment: Cell proliferation assay (CellTiter-Glo), venous endothelia. The assay is classed as cell-based. Particulars: Homo sapiens, 72 hours of treatment, growth medium. The procedure:
as §1

Assay [2] deals with arterial endothelia, such as HAEC and HPAEC. As to the kind of experiment: Cell proliferation assay (CellTiter-Glo), arterial endothelia. The assay is classed as cell-based. Particulars: Homo sapiens; 72 hours of treatment, growth medium. The procedure:
as §1

For assay [3], the system named is Endothelial cells (HUVEC). As to the kind of experiment: Endothelial cell migration assay. It is filed as cell-based. Particulars: Homo sapiens, read-out: Inhibition in Endothlial migration. On the procedure: Endothelial cell migration is a key step of the angiogenesis process, which is crucial for on-site recruitment of blood vessel formation. The trans-well filter/inserts chamber of Biocoat Endothelial Cell Migration Angiogenesis System (BD Biosciences) is used for endothelial cell migration assay, which is a 24-Transwell chamber plate containing 3-μm pore size inserts coated with human fibronectin. The inserts are incubated at 37° C. with 0.1% bovine serum albumin containing endothelial cell basal medium for 1 hour. Endothelial cells (HUVEC) are starved with 0.1% bovine serum albumin in endothelial cell basal medium for 4 to 5 hours before the cell harvest and then seeded (1×10^5 per well) in upper chambers of the Transwell plate with various treatments in 100 ul of 0.1% bovine serum albumin in endothelial cell basal medium. The full growth medium that contains various chemoattractants is added in the lower chambers. The cells are allowed to migrate for 22±1 hours at 37° C. Unmigrated cells at the inside of the inserts are carefully removed with a Q-tip. Migrated cells at the lower part of the Transwell inserts are then fixed with 4% paraformaldehyde, stained with Hoechst 33342, and photographed under a fluorescent microscope. Three microscopic view fields of each filter/insert are analyzed for the number of migrated cells. Triplicate filter/insert chamber cultures are carried for each test concentration and control.

The subject of assay [4] is Chicken embryo chorioallantoic membrane. As to the kind of experiment: Chick chorioallantoic membrane (CAM) assay. It is filed as in vivo. To be noted: 10 μg; vascular density index. The text has this: Chicken embryo chorioallantoic membrane provides an ideal in vivo model for the physiologic process of angiogenesis. Angiogenic modulators applied on methylcellulose discs placed on top of chicken embryo chorioallantoic membrane are able to alter the development of new blood vasculature. See Staton et al, Current Methods for Assaying Angiogenesis in vitro and in vivo, INT. J. EXP. PATHOL., 85:233-48 (2004), which is incorporated herein by reference in its entirety. The angiogenesis chorioallantoic membrane assay is used for ex vivo evaluation of the anti-angiogenic potential of synthetic compounds. Fertilized chicken eggs are incubated at 37.5° C. in a humidified egg incubator with forced air circulation. On embryo Day 3, eggs are cracked open and embryos are transferred into […] Petri plates to continue their development in a cell culture incubator at 37.5° C. Pre-made methylcellulose discs in about 2 mm in diameter are gently implanted on top of embryo chorioallantoic membrane on embryonic Day 5 and then testing compound in solution or control vehicle is applied on top of methylcellulose disc. The embryos are incubated for two more days in the cell culture incubator. The chorioallantoic membranes are examined and quantitatively analyzed for new blood vessel formation at embryonic Day 7. The treatment effects on angiogenesis are evaluated by determining vascular density index (VDI) of each CAM with viable chicken embryos. The VDI represents the number of intersections made by blood vessels with three equidistant concentric circles on the area covered by methylcellulose discs by using Image Pro Plus software. The data are expressed as average VDI based on the quantitative analysis for each treatment group (N≧5) with stander deviation.

With `CC(C)(C)c1ccc(C(O)CCCN2CCC(C(O)(c3ccccc3)c3ccccc3)CC2)cc1` (centres unmarked) [Terfenadine], the inhibition at 2 µM worked out at 20% in assay [1] and 34% in assay [3]. Also, the inhibition at 8 µM in assay [1] was 43%; in assay [3] it was 100%. Also, the IC50 with lung fibroblasts LL47 was found to be 7 µM; in the assay with venous endothelia HUVEC it was 5.5 µM; in assay [2], 3 µM. Also, in assay [4], the “Inhibition in CAM Assay” value was determined as 28%.
With `Oc1c(Cl)cc(Cl)cc1Sc1cc(Cl)cc(Cl)c1O` [Bithionol], the results for the inhibition at 2 µM in assay [1] and in assay [3] were 19% and 5%, respectively. For the same molecule, the inhibition at 8 µM in assay [1] worked out at 38%; in assay [3] it was 100%. For the same molecule, the values for the half-inhibitory concentration (IC50) (in the assay with lung fibroblasts LL47; with venous endothelia HUVEC; in assay [2]) were 10.5 µM, 6 µM and 2 µM, respectively. Moreover, the “Inhibition in CAM Assay” value in assay [4] came out at 30%.
As to `CN(C)CCCN1c2ccccc2CCc2ccc(Cl)cc21` [Clomipramine hydrochloride], in assay [1], the inhibition at 2 µM was 12% and the inhibition at 8 µM was 26%. For the same molecule, in assay [3], the inhibition at 2 µM is 58% and the inhibition at 8 µM was 63%. The “Inhibition in CAM Assay” value in assay [4] came to 19%.
For `CCCCc1oc2ccccc2c1C(=O)c1cc(I)c(OCCN(CC)CC)c(I)c1` [Amiodarone hydrochloride], in that order: 33%, 33%, 36%, 38% and 27%.
Consider `OCCN1CCN(CCCN2c3ccccc3Sc3ccc(Cl)cc32)CC1` [Perphenazine], for which the inhibition at 2 µM came to 7% in assay [1] and 43% in assay [3]. For the same molecule, the inhibition at 8 µM in assay [1] came out at 22%; in assay [3], 46%. In addition, the figures for the IC50 (with lung fibroblasts LL47; in the assay with venous endothelia HUVEC; in assay [2]) were 10.8 µM, 11.1 µM and 4.2 µM, respectively.
On to `Cc1nc2sccn2c(=O)c1CCN1CCC(=C(c2ccc(F)cc2)c2ccc(F)cc2)CC1` [Ritanserin], for which the figures for the inhibition at 2 µM in assay [1] and in assay [3] were 11% and 55%, respectively. Besides, the inhibition at 8 µM in assay [1] was found to be 33%; in assay [3], 65%. Moreover, the IC50 in the assay on lung fibroblasts LL47 is more than 50 µM; with venous endothelia HUVEC, 10.5 µM; in assay [2] it was 11 µM. In assay [4], the “Inhibition in CAM Assay” value was determined as 21%.
